Measured values reported in patent US11596615B2, “Compositions and methods for treatment of insulin resistance” (Temple University—Of The Commonwealth System Of Higher …, priority 2016, dated 2023).
Where a name gives a salt, the structure may show the parent alone.

Assay: Solution stability in mouse plasma
Assay type: in vitro ADME, mouse (male C57BL/6)
Conditions: male, C57BL/6; 1 μM in mouse plasma, 37° C.
Protocol: The stability of the title compound was tested in the following media, in the following concentrations: (i) 1 μM in mouse (male C57BL/6) plasma, (ii) 1 μM in PBS (with Ca and Mg) (control treatment); (iii) 5 μM in stimulated gastric fluid (SGF; 0.2% NaCl; 84 mM HCl; 0.32% pepsin; pH 1.2); (iv) 5 μM in stimulated intestinal fluid (SIF; 50 mM KP, pH 6.8; 10 mg/ml pancreatin); and (v) 5 μM in PBS (+Ca and Mg) (control treatment). The results are as follows: (i) 1 μM in mouse plasma, t1/2>6 hr at 37° C.; (ii) 1 μM in PBS, t1/2>6 hr at 37° C.; (iii) 5 μM in SGF, t1/2>3 hrs at 37° C.; (iv) 5 μM in SIF, t1/2>3 hrs at 37° C.; and (v) 5 μM in PBS, t1/2>3 hr at 37° C. The “t1/2” values are the maximum time employed for the respective assays.

For NCCCNCCCC[C@H](N)C(=O)O [APL, (S)-2-amino-6-((3-aminopropyl)amino)hexanoic acid dihydrochloride], the half-life at 1 μM was greater than 6 h.
